In patent US20100004293A1, “CRYSTALLINE FORMS OF ARYL-SUBSTITUTED PYRAZOLE-AMIDE COMPOUNDS” (Bristol-Myers Squibb Company, priority 2006, published 2010):
≈ marks a conversion by molar mass, not a printed value. Each block holds one molecule with its values, some of them ahead of it.

Assays:
[1] = solvate stability by single crystal structure determination at different temperatures; format: physicochemical; conditions: solvent site fully occupied at −50° C., still 50% occupied at +82° C.
Description: In addition to the monohydrate, Compound I also forms solvates with a large number of organic solvents. The type 3 family of solvates (represented by an EtOAc solvate, form EA.5-3; a PrOAc solvate, form PA.5-3; a MeCN solvate, form AN-3; and a CH2CL2 solvate, DC-3) have a large hydrophobic clathrate channel (V˜215 Å^3) parallel to the crystallographic a repeat. […] The single crystal structures of an ethanol solvate (E-8), an isopropanol solvate (IPA-10), a second acetonitrile form (AN-11) and three mixed solvates (SA-9, SB-12, SC-13) with THF and water have been determined.

[2] = dehydration/heating of monohydrate H-1; format: physicochemical
[3] = drying studies for H-1; format: physicochemical
Description: (§1) Based on the equilibrium RH studies, N-2 could undergo hydrate formation during handling, formulation or storage.

[4] = moisture sorption study; format: physicochemical
Description: (§2) The available data establish the following RH range for equilibrium N-2/H-1 conversion: 25%<RHeq<=30%. Wetcakes subjected to RH<30% are subject to dehydration, kinetic factors notwithstanding.

[5] = aqueous solubility of crystalline forms; format: physicochemical
[6] = slurry conversion studies in butanol/water mixtures (N-2/H-1); format: physicochemical; conditions: N-2 versus H-1, butanol/water slurry
Description: as §2

[7] = solid-state storage stability (temperature/humidity, HIL, filler excipients); format: physicochemical
Description: as §1

[8] = slurry conversion studies at 25 and 50° C. and melting data (relative polymorph stability); format: physicochemical
[9] = monkey PK crossover study; format: in vivo; conditions: monkey PK crossover study (n=4)
Description: as §1

[10] = exposed to HIL for at least 1 week
[11] = stored at 50° C./75% RH open and closed for at least 4 weeks

- stability of solvate [1]: relatively stable
Compound: Cc1ccc(C(=O)NC2CC2)cc1NC(=O)c1cnn(-c2ncccc2C(F)(F)F)c1C [Form M-4]

- relative stability N-5:N-6 (monotropes) ([8]; N-5 versus N-6): more stable
Compound: Cc1ccc(C(=O)NC2CC2)cc1NC(=O)c1cnn(-c2ncccc2C(F)(F)F)c1C [Form N-5, N-(5-(cyclopropylcarbamoyl)-2-methylphenyl)-5-methyl-1-(3-(trifluoromethyl)pyridin-2-yl)-1H-pyrazole-4-carboxamide]

- exposure for the N-2 relative to H-1 [9]: ~2 fold
- hygroscopicity ([4]; about 25 to about 75% RH at 25° C.): non-hygroscopic
- relative stability among polymorphic (neat) forms ([8]; at 25° C. and 50° C.): most stable polymorphic (neat) form
- aqueous solubility [5]: ≥ 28 µg/mL
- solubility ratio (N-2 to H-1) ([5]; aqueous solubility, N-2 relative to H-1): ~4 ×
- RH at which the form is the more stable form [6]: ≤ 16%
- chemical and physical stability in the solid-state [7, 10]: chemically and physically stable
- form conversion (hydrate formation) on storage ([7]; stored 3 weeks or more at elevated temperature and humidity (e.g., 50° C./75% RH), in the presence of common filler excipients): no conversion
- chemical and physical stability in the solid-state [7, 11]: chemically and physically stable
Compound: Cc1ccc(C(=O)NC2CC2)cc1NC(=O)c1cnn(-c2ncccc2C(F)(F)F)c1C [Form N-2, N-(5-(cyclopropylcarbamoyl)-2-methylphenyl)-5-methyl-1-(3-(trifluoromethyl)pyridin-2-yl)-1H-pyrazole-4-carboxamide]

The next lines start with the molecule.

Compound: Cc1ccc(C(=O)NC2CC2)cc1NC(=O)c1cnn(-c2ncccc2C(F)(F)F)c1C [Form H-1, N-(5-(cyclopropylcarbamoyl)-2-methylphenyl)-5-methyl-1-(3-(trifluoromethyl)pyridin-2-yl)-1H-pyrazole-4-carboxamide]
- form conversion upon heating ([2]; 90° C., 30 m, to neat form T1H1 (N-7)): converts topotactically
- stability under reduced humidity ([2]; reduced humidity): unstable
- form conversion on drying ([3]; dryer at 20-30% RH): no conversion was observed
- form conversion on drying ([3]; dryer maintained at 40° C. at RH 2.4-3.4%): converted to N-7
- hygroscopicity ([4]; about 35 to about 75% RH): essentially non-hygroscopic
- water sorption, descending RH run ([4]; at 25% RH): partially dehydrated
- aqueous solubility [5]: 7 µg/mL (≈ 15.8 µM)
- RH at which the form is the more stable form [6]: ≥ 30%
- chemical and physical stability in the solid-state [7, 10]: chemically and physically stable
- chemical and physical stability in the solid-state [7, 11]: chemically and physically stable

Compound: Cc1ccc(C(=O)NC2CC2)cc1NC(=O)c1cnn(-c2ncccc2C(F)(F)F)c1C [Form N-7, N-(5-(cyclopropylcarbamoyl)-2-methylphenyl)-5-methyl-1-(3-(trifluoromethyl)pyridin-2-yl)-1H-pyrazole-4-carboxamide]
- relative stability of N-7 (monotropic with N-2, N-5 and N-6) ([8]; versus N-2, N-5 and N-6): less stable at all temperatures below 192 °C

Compound: Cc1ccc(C(=O)NC2CC2)cc1NC(=O)c1cnn(-c2ncccc2C(F)(F)F)c1C [dehydrated H-1]
- water sorption, ascending RH run ([4]; between 75 and 95% RH): partially rehydrates to H-1
